Measurements reported in patent EP0687468A2, “Pharmaceutical composition for suppressing infiltration of eosinophils” (Toyo Boseki Kabushiki Kaisha, priority 1994, dated 1995).

Columns and labels:
[1] = tested on: adhesion of eosinophils to vascular endothelial cells; test: Inhibition of adhesion of eosinophils to TNF-treated HUVEC; format: cell-based; details: test compound concentration at TNF treatment and adhesion reaction; HUVEC treated with 100 U/ml TNF for 6 hours; adhesion reaction 20 minutes; human peripheral blood eosinophils
Procedure: Human umbilical vein-derived endothelial cells (HUVEC) were placed in a single layer in a 96 well plate and treated with 100 U/mi tumor necrosis factor (TNF) for 6 hours. The eosinophils obtained from peripheral blood of healthy human were fluorescence-labeled and layered on the TNF-treated HUVEC. After adhesion reaction for 20 minutes, unadhered eosinophils were removed by washing and fluorescent intensity of each well of the plate was measured to determine the eosinophils adhered to the HUVEC. The test compound was added so that the concentration at TNF treatment and adhesion reaction was 10-^SM.

[2] = tested on: intraperitoneal infiltration of eosinophils; test: Intraperitoneal infiltration of eosinophils in rat (Ascaris extract induced); format: in vivo; details: 3 mg/kg orally once a day for 9 days; Asc-sensitized male Wistar rats; eosinophils counted 48 hours after antigen induction
Procedure: Ascaris extract (Asc, protein amount 8 mg) was intraperitoneally administered to male Wistar rats to sensitize them. Seven days later, 4 mg protein amount of Asc was intraperitoneally administered to induce intraperitoneal infiltration of eosinophils. Forty-eight hours after the antigen induction, abdominal cavity was washed, and the infiltrated eosinophils were counted. The test compound (3 mg/kg) was orally administered once a day for 9 days from the day of antigen sensitization to one day before recovery of the infiltrated intraperitoneal cells.

[3] = tested on: infiltration of eosinophils in the airway; test: Infiltration of eosinophils into bronchovesicles in rats (ovalbumin induced); format: in vivo; details: 10 mg/kg orally 5 minutes before and 5 hours after antigen induction; OA-sensitized male BN rats; bronchial wash 24 hours later
Procedure: An ovalbumin (OA) antigen (10 mg/kg) was intramuscularly administered to male BN rats, and 5 x 10^10 nonvial Bordetella pertussis cells were intraperitoneally administered to sensitize them. Fourteen days later, the rats were exposed to 2% OA to induce infiltration of eosinophils in the airway. Twenty-four hours later, bronchial tubes were washed and infiltrated cells were recovered to count the infiltrated eosinophils. The test compound (10 mg/kg) was orally administered 5 minutes before and 5 hours after the induction with antigen.

Compound	Suppression of adhesion of eosinophils (%) [1] [%]	Suppression of infiltration of eosinophils (%) [2] [%]	Suppression of infiltration of eosinophils (%) [3] [%]
COCC(=O)Nc1cc(C#N)cc(N)c1Cl [3-amino-4-chloro-5-(methoxyacetylamino)benzonitrile]	62	42	56
N#Cc1cc(N)c(Cl)c(NC(=O)CO)c1 [3-amino-4-chloro-5-(hydroxyacetylamino)benzonitrile]	74	54	48
CC(=O)OCC(=O)Nc1cc(C#N)cc(N)c1Cl [3-(acetoxyacetylamino)-5-amino-4-chlorobenzonitrile]	70	55	53
